# Measured values taken from USRE35053E, “Amines useful in producing pharmaceutically active CNS compounds” (The Upjohn Company, priority 1992, dated 1995).
# Counter-ions that a name gives are not always drawn.
# Columns and labels:
# [1] = system: angiogenesis; experiment: fertile egg or chick embryo assay of Folkman (inhibition of angiogenesis / tumor growth); assay type: in vivo; conditions: chick embryo; 50 μg/10 μl with heparin; avascular zone 4 mm or greater
# Experimental: According to this procedure compounds which are considered to be "active" (i.e, antiangiogenic) give an avascular zone of 4 mm or greater in some embryos when tested at 50 μg/10 μl in the presence of 50 μg/10 μ of heparin.
# [2] = system: induced mucous secretions; experiment: inhibition of mucous secretion assay of Johnson; conditions: for inhibition of mucous secretion: inhibit or block enhancement of induced mucous secretions
# Excerpt: The inhibition of mucous secretion assay of Johnson Int. […] According to this procedure compounds which inhibit or block enhancement of induced mucous secretions when tested are considered to be "active".
# [3] = system: interleukin-1; experiment: inhibition of interleukin-1 induced T cell proliferation assay; assay type: cell-based; conditions: active = >30% at 10^-6 M
# Excerpt: The inhibition of interleukin-1 induced T cell proliferation assay, Proc. Nat. […] Since people with arthritis make excess interleukin 1, compounds which inhibit the activity of interleukin 1 are useful in the treatment of arthritis. According to this procedure compounds which inhibit the activity of interleukin 1 greater that 30% at 10^-6 M are considered to be "active".
# [4] = system: MDA formation in rat brain synaptosomes; experiment: Malonyldialdehyde (MDA) Formation Assay (lipid peroxidation); assay type: biochemical; conditions: active = 50% inhibition or more at 200 μM or less
# Excerpt: The MDA assays of Buege and Aust, Methods in Enzymology, Fleisher and Packer Editors. Academic Press, 1978, New York, Vol LII, p 302-310 and Kohn and Liversedge, J. Pharmacol. Exp. Ther. 82. […] Since iipid peroxidation is involved in the pathophysiology of central nervous system trauma, compounds which inhibit MDA formation are useful in treating the conditions listed below.
# While not necessary to determine MDA formation, the above assays have been modified as follows: rat brain synaptosomes are prepared as described in the Example about the conjugated diene assay, except that the final wash of the synaptosomes and final suspension are in physiological (normal) saline in which the pH has been adjusted to 7 0. The synaptosomes are incubated for 10 min at 37° in physiological (normal) saline pH 7.0 (total volume=100 ul) containing; 10 ul synaptosomal suspension. 10% DMSO plus or minus drug. 150 uM Fe^+++ and 50 uM Fe^++. The incubation is started by the rapid addition of iron to the otherwise complete reaction. The iron solutions are prepared fresh as ferric chloride and ferrous ammonium sulfate in argon-purged water. Following the 10 min incubation, the reaction is stopped by the addition of 500 ul ice-cold 12% trichloroacetic acid prepared in 0.5 N hydrochloric acid. Water (300 ul) is then added along with 100 ul of freshly prepared thiobarbituric acid (3.3% in 0.5N sodium hydroxide) and 10 ul of 5mM desferrioxamine. The sample is then heated in a boiling water bath for 20 minutes. The samples are cooled and centrifuged for 15 minutes at 1500 xg and the absorbance of the supernatant fraction is read at 532 nm. The % inhibition of MDA formation is calculated by dividing the absorbance of sample containing drug by the absorbance of samples incubated without drug. Reaction blanks are samples incubated in the absence of iron A compound that inhibits MDA formation by 50% or more at a concentration of 200μM or less is considered "active".
# [5] = system: conjugated diene formation in rat brain synaptosomes; experiment: Conjugated diene formation assay (lipid peroxidation); assay type: biochemical; conditions: 100 μM (or less) of the drug, active = 50% inhibition or more
# Experimental: The formation of conjugated dienes as assayed by Braughler. […] Bucher, Fund.
# Synaptosomal suspension (10 μl) is added to 1 ml of physiological (normal) saline containing 1% Lubrol PX (Sigma Chemical Co. St. Louis, Mo.). […] The reaction is started by the rapid addition of 200 μM ferrous ammonium sulfate prepared in argon-purged water. The sample is rapidly mixed and the change in absorbance at 232nm is followed in a Gilford Response Spectrophotometer equipped with a rapid sampler. Due to the rapidity of the reaction, rapid addition of the iron, rapid mixing and sampling are obligatory to the accuracy of the assay. For best results absorbance readings of one/sec should be started within 5 sec following the addition of iron. The initial linear rate of absorbance change during the first 30 sec of reaction are compared with the rate of a reaction containing all reagents except synaptosomes. The difference in rates is the rate of conjugated diene formation. Rates with drug are compared to rates obtained in the absence of drug and the % inhibition is calculated.
# [6] = system: arachidonic acid; experiment: Arachidonic Acid Antagonism Assay (AAAA); assay type: in vivo, mouse (Charles River male CF-1); conditions: mice; IV, 15 min before sodium arachidonate; outside 95% confidence interval of control LD50
# Experimental: While not necessary to determine arachidonic acid antagonism, the above assay has been modified as follows: Charles River male CF-1 mice weighing […] are treated IV with the test compound dissolved in 1.0% Tween-80 and 0.1% hydrochloric acid in distilled water. 0 2 ml total volume. Fifteen minutes later sodium arachidonate (90% pure) in physiological (normal) […] is injected into the tail vein. The LD50 is measured using the Spearman-Karber method with a log dose interval of 0.05 (N-6). Compounds which elevate the LD50 outside of the 95% confidence interval of the control LD50 are considered to be "active".
Structure (SMILES),inhibition of angiogenesis [1],inhibition of mucous secretion [2],preferred mucous inhibitors per test results ([2]; ranking in words),inhibition of interleukin 1 [3],inhibition of MDA formation [4],inhibition of conjugated diene formation [5],arachidonic acid antagonism (elevation of LD50 of arachidonic acid) [6]
"C[C@]12CCC(=O)C=C1CC[C@@H]1C2=CC[C@@]2(C)[C@H]1CC[C@]2(O)C(=O)CN1CCN(c2cc(N3CCOCC3)nc(N3CCOCC3)n2)CC1 [Example 105, 21-[4-(2,6-Bis(4-morpholino)-4-pyrimidinyl)-1-piperazinyl]-17α-hydroxypregna-4,9(11)-diene-3,20-dione dihydrochloride, hydrate]",demonstrate inhibition of angiogenesis,demonstrate such activity,preferred mucous inhibitors,demonstrate inhibition of interleukin 1,–,–,–
"C[C@@H]1C[C@H]2[C@@H]3CCC4=CC(=O)C=C[C@]4(C)C3=CC[C@]2(C)[C@H]1C(=O)CN1CCN(c2cc(N3CCOCC3)nc(N3CCOCC3)n2)CC1 [Example 86, 16α-methyl-21-[4-[2,6-bis(4-morpholino)-4-pyrimidinyl]-1-piperazinyl]pregna-1,4,9(11)-triene-3,20-dione]",demonstrate inhibition of angiogenesis,–,–,demonstrate inhibition of interleukin 1,demonstrate such activity,demonstrate such activity,–
"CCN(CC)c1cc(N2CCN(CC(=O)[C@@]3(O)CC[C@H]4[C@@H]5CCC6=CC(=O)CC[C@]6(C)C5=CC[C@@]43C)CC2)nc(N)n1 [Example 4, 21-[4-[2.Amino-6-(diethylamino)-4-pyrimidinyl]1-piperazinyl]-17α-hydroxypregna-4,9(11)-diene-3,20-dione]",–,demonstrate such activity,–,–,–,demonstrate such activity,demonstrate arachidonic acid antagonism
"CC(CN1CCN(c2cc(N3CCCC3)nc(N3CCCC3)n2)CC1)[C@H]1CC[C@H]2[C@@H]3CCC4=CC(=O)C=C[C@]4(C)[C@H]3CC[C@]12C.CS(=O)(=O)O.O (some centres unmarked) [Example 112, 21-[4-(2,6-Bis(1-pyrrolidinyl)-4-pyrimidinyl)-1-piperazinyl]-20-methylpregna-1,4-dien-3-one methanesulfonate, hydrate]",–,–,–,–,–,demonstrate such activity,–
"C[C@]12C=CC(=O)C=C1CC[C@@H]1C2=CC[C@]2(C)[C@@H](C(=O)CN3CCN(c4cc(N5CCCC5)nc(N5CCCC5)n4)CC3)CC[C@@H]12.Cl.Cl [Example 111, 21-[4-(2,6-Bis(1-pyrrolidinyl)-4-pyrimidinyl)-1-piperazinyl]pregna-1,4,9(11)-triene-3,20-dione dihydrochloride]",–,–,–,–,–,demonstrate such activity,–
"C[C@@H]1C[C@H]2[C@@H]3CCC4=CC(=O)C=C[C@]4(C)[C@H]3[C@H](O)C[C@]2(C)[C@H]1C(=O)CN1CCN(c2cc(N3CCCC3)nc(N3CCCC3)n2)CC1 [Example 84, 11α-hydroxy-16α-methyl-21-[4-[2,6-bis(1-pyrrolidinyl)-4-pyrimidinyl]-1-piperazinyl]pregna-1,4-diene 3,20-dione]",–,–,–,demonstrate inhibition of interleukin 1,–,demonstrate such activity,–
"C[C@]12CCC(=O)C=C1CC[C@@H]1C2=CC[C@@]2(C)[C@H]1CC[C@]2(O)C(=O)CN1CCC(O)(c2ccc(C(F)(F)F)cc2)CC1 [Example 5, 17α-Hydroxy-21-[4-hydroxy-4 (4-trifiuoromethyl)phenyl 1-piperidinyl]pregna-4,9(11)-diene-3 20-dione]",–,–,–,–,–,demonstrate such activity,–
"C[C@H]1C[C@@H]2C(=CC[C@@]3(C)[C@H]2CC[C@]3(O)C(=O)CN2CCN(c3cc(N4CCCC4)nc(N4CCCC4)n3)CC2)[C@@]2(C)C=CC(=O)C=C12 [Example 47, 17α-hydroxy-6α-methyl-21-[4-[2,6-bis(1-pyrrolidinyl)-4-pyrimidinyl-1-piperazinyl)pregna-1,4,9(11)-triene-3,20-dione,(E)-2-butenodioate salt]",–,–,–,demonstrate inhibition of interleukin 1,demonstrate such activity,demonstrate such activity,demonstrate arachidonic acid antagonism
